Holding throughout (format): cell-based
Test [1] concerns SARS-CoV-2 Wuhan variant.
Test [2] concerns SARS-CoV-2 Omicron variant.
The test system of test [3] is SARS-CoV-2 Wuhan variant. As to the kind of experiment: microbe, parasite or virus in culture.
Another test relates to SARS-CoV-2 D614G variant.
The subject of another test is SARS-CoV-2 Alpha variant. As to the kind of experiment: microbe, parasite or virus in culture.
The subject of the next test is SARS-CoV-2 Delta variant. As to the kind of experiment: microbe, parasite or virus in culture.
Where [4] appears, read: Severe acute respiratory syndrome coronavirus 2, Calu-3.

Like-named read-outs stand apart in the source and are kept apart here. A value given as a limit tells only on which side of the number the result lay.

For `N[C@@H](CCC(=O)N[C@@H](CS)C(=O)NCC(=O)O)C(=O)O` [GSH, glutathione], the “antiviral activity after a single replication cycle (viral titre, in words)” value (“antiviral activity” for short) in the test with SARS-CoV-2 Wuhan variant [1] is “strong antiviral activity”; in test [2], “effective against the Omicron variant”.
As to `O=C(O)c1cc(/N=N/c2ccc(S(=O)(=O)Nc3ccccn3)cc2)ccc1O` [Sulfasalazine], the “SI (selectivity index)” value in the test on SARS-CoV-2 Wuhan variant [3] was more than 20.51; in the test on SARS-CoV-2 Alpha variant, more than 23.87; in the test on SARS-CoV-2 Delta variant, more than 20.82. Moreover, the IC50 was determined as 24400 ± 5370 nM with SARS-CoV-2 Wuhan variant [3] (setting [4]), 20000 ± 2070 nM with SARS-CoV-2 D614G variant, 20900 ± 4230 nM in the test on SARS-CoV-2 Alpha variant (setting [4]) and 24000 ± 3200 nM in the test on SARS-CoV-2 Delta variant (setting [4]).
Consider `COc1cc(Nc2ncc(F)c(Nc3ccc4c(n3)NC(=O)C(C)(C)O4)n2)cc(OC)c1OC` [Tamatinib], for which the IC50 in the test on SARS-CoV-2 Wuhan variant [3] (setting [4]) worked out at 103 ± 2.7 nM; in the test with SARS-CoV-2 D614G variant, 115 ± 6.77 nM; with SARS-CoV-2 Alpha variant (setting [4]), 82.95 ± 0.68 nM; in the test on SARS-CoV-2 Delta variant (setting [4]) it was 99.2 ± 1.4 nM. The “SI (selectivity index)” value worked out at 69.20 with SARS-CoV-2 Alpha variant and 57.84 in the test with SARS-CoV-2 Delta variant.
Take `COc1cc2c(Nc3ccc(Br)cc3F)ncnc2cc1OCC1CCN(C)CC1` [Vandetanib]: the “SI (selectivity index)” value with SARS-CoV-2 Wuhan variant [3] is listed as 96.46; with SARS-CoV-2 Alpha variant it was 123.55; in the test on SARS-CoV-2 Delta variant, 72.91. In addition, the IC50 with SARS-CoV-2 Wuhan variant [3] (setting [4]) amounted to 38.9 ± 2.4 nM; in the test on SARS-CoV-2 D614G variant, 33.4 ± 2.72 nM; with SARS-CoV-2 Alpha variant (setting [4]) it was 30.4 ± 1.54 nM; in the test on SARS-CoV-2 Delta variant (setting [4]), 51.5 ± 5.55 nM.
For MKI-1, the IC50 came to 46.5 ± 1.8 nM in the test with SARS-CoV-2 Wuhan variant [3] (read-out: IC50), 46.4 ± 0.82 nM with SARS-CoV-2 D614G variant, 31.7 ± 4.18 nM in the test with SARS-CoV-2 Alpha variant (read-out: IC50) and 48.4 ± 2.07 nM in the test with SARS-CoV-2 Delta variant (read-out: IC50).
As for N-acetyl cysteine [NAC], in the test on SARS-CoV-2 Wuhan variant [3] (read-out: IC50), the IC50 is 549000 nM. Further, the “antiviral activity” value in the test on SARS-CoV-2 Wuhan variant [1] is given as “strong antiviral activity”; in test [2], “effective against the Omicron variant”.
Take imidazole ketone erastin [IKE]: the IC50 in the test with SARS-CoV-2 Wuhan variant [3] (read-out: IC50) amounted to 99 ± 8.12 nM; with SARS-CoV-2 D614G variant it was 88.5 ± 105 nM; with SARS-CoV-2 Alpha variant (read-out: IC50) it was 79.9 ± 4.11 nM; in the test with SARS-CoV-2 Delta variant (read-out: IC50) it was 113 ± 3.71 nM. For the same compound, the “antiviral activity” value in the test with SARS-CoV-2 Wuhan variant [1] was “strong antiviral activity”; in test [2] it was “effective against the Omicron variant”.

The values above are taken from PMC11411213 (Journal of Molecular Cell Biology, 2024).
